{"source": "patent US20240100075A1", "about": "“Synthetic Compositions Comprising LNFP III and LSTa” (FrieslandCampina Nederland B.V., priority 2020, published 2024)", "assay_type_in_all_cases": "cell-based, human", "key": {"FoxP3": {"system": "FoxP3", "assay": "Intracellular staining of transcription factors in PBMCs (FACS), FoxP3", "conditions": "PBMC, single HMOs and total pool of HMO; method not given", "experimental": "For intracellular staining PBMCs from 3 donors were incubated with the mentioned HMOs (0.5 g/1) for 24 h prior to analysis. In a 96-wells plate 5*10^5 PBMCs were pelleted at 300 g for 4 minutes. Subsequently, the cells were blocked using 25 μL of blocking buffer (Human BD Fc Block™,BD) and incubated for 10 minutes at room temperature. Then, 25 μL of anti-CD4 FITC (555346, BD) and anti-CD3 APC (555335, BD) were added to each test. The cells were incubated 30 minutes on ice. After the cells were washed twice with Stain Buffer (FBS) (554657, BD) an intracellular staining for the transcription factors was performed by the Transcription Factor Buffer Set (562574, BD). FoxP3 PE (560852, BD) and RORγT PE (563081, BD) were used. Cells were analyzed with FACS (Easycyte 8HT). Expression of FoxP3 and RORγT was analyzed in the CD4-positive cells.\nPBMC's from 3 donors were isolated from a buffy coat using Sepmate tubes. The cells were diluted to a concentration of 1*10^7 cells per ml. The PBMC's were seeded in 6 wells plates and treated with 0.5 g/l of 2′-FL or a mix of LNFP-III with LSTa 1:1 w/v in PBMC culturing medium for 24 h. Cells incubated with no HMOs were used as control. For Fluorescence Activated Cell Sorting (FACS), 5*10^5 PBMCs were pelleted at 300 g for 4 minutes in a 96-well plate.\nSubsequently, the cells were blocked using 25 μL of blocking buffer (Human BD Fc Block™,BD) and incubated for 10 minutes at room temperature. Then, 25 μL of anti-CD4 FITC (555346, BD) and anti-CD3 APC (555335, BD) were added to each test. The cells were incubated 30 minutes on ice. After the cells were washed twice with Stain Buffer (FBS) (554657, BD) an intracellular staining for the transcription factors was performed by the Transcription Factor Buffer Set (562574, BD). FoxP3 PE (560852, BD) and RORγT PE (563081, BD) were used. Cells were analyzed with FACS (Easycyte 8HT)."}, "Interleukin-10 (IL-10)": {"system": "Interleukin-10 (IL-10)", "assay": "Cytokine analysis (Cytometric Bead Array) in PBMC supernatant, IL-10", "conditions": "for effect on the expression of IL10 (summary statement): PBMC, single HMOs and total pool of HMO, method not given", "experimental": "BD™ Cytometric Bead Array (CBA) Human Th1/Th2/Th17 Cytokine Kit (560484, BD) was used to measure Interleukin-6 (IL-6) and Interleukin-10 (IL-10) protein levels in supernatant following the manufacturer's instructions. After acquiring samples on the FACS (Easycyte 8HT), the FCAP Array™ software was used to determine cytokine concentrations.\nPBMC's from 3 donors were isolated from a buffy coat using Sepmate tubes. The cells were diluted to a concentration of 1*10^7 cells per ml. The PBMC's were seeded in 6 wells plates and treated with 0.5 g/l of 2′-FL or a mix of LNFP-III with LSTa 1:1 w/v in PBMC culturing medium for 24 h. Cells incubated with no HMOs were used as control. The supernatants from these cultures were collected and BD™ Cytometric Bead Array (CBA) Human Th1/Th2/Th17 Cytokine Kit (560484, BD) was used to measure Interleukin-6 (IL-6) and Interleukin-10 (IL-10) protein levels in supernatant following the manufacturer's instructions. After acquiring samples on the FACS (Easycyte 8HT), the FCAP Array™ software was used to determine cytokine concentrations."}, "Interleukin-6 (IL-6)": {"system": "Interleukin-6 (IL-6)", "assay": "Cytokine analysis (Cytometric Bead Array) in PBMC supernatant, IL-6", "conditions": "PBMCs of 3 donors, 0.5 g/l, 24 h, FIG. 8, compared with control", "experimental": "BDTM Cytometric Bead Array (CBA) Human Th1/Th2/Th17 Cytokine Kit (560484, BD) was used to measure Interleukin-6 (IL-6) and Interleukin-10 (IL-10) protein levels in supernatant following the manufacturer's instructions. After acquiring samples on the FACS (Easycyte 8HT), the FCAP ArrayTM software was used to determine cytokine concentrations. PBMC's from 3 donors were isolated from a buffy coat using Sepmate tubes. The cells were diluted to a concentration of 1*10^7 cells per ml. The PBMC's were seeded in 6 wells plates and treated with 0.5 g/l of 2'-FL or a mix of […] in PBMC culturing medium for 24 h. Cells incubated with no HMOs were used as control. The supernatants from these cultures were collected and BDTM Cytometric Bead Array (CBA) Human Th1/Th2/Th17 Cytokine Kit (560484, BD) was used to measure Interleukin-6 (IL-6) and Interleukin-10 (IL-10) protein levels in supernatant following the manufacturer's instructions. After acquiring samples on the FACS (Easycyte 8HT), the FCAP ArrayTM software was used to determine cytokine concentrations."}, "CD25 (IL2RA)": {"system": "CD25 (IL2RA)", "assay": "RNA sequencing in PBMCs, CD25 (IL2RA) gene expression", "conditions": "PBMCs of 3 donors, 0.5 g/l HMO, 6 h, Polymyxin B as control, FIG. 2", "experimental": "(§1) Peripheral blood mononuclear cells (PBMCs) were isolated from a buffy coat using Sepmate tubes. The cells were diluted to a concentration of 1*10^7 cells per ml. The PBMC's were seeded in 6 wells plates and treated with 0.5 g/l of each HMO in PBMC culturing medium for 6 h prior to RNA isolation. Each human milk oligosaccharide (HMO) was mixed with 100 ug/ml (microgram/milliliter) final concentration of Polymyxin B to ensure neutralization of possible endotoxin contamination of HMOs, while equal amounts of Polymyxin B were used as a control. As a positive control HMOs isolated from pooled human milk sample were used. Single HMOs were purchased from BOC Sciences.\n(§2) 2500 ng RNA, isolated from PBMCs of 3 donors, was translated into cDNA, using the quantitect reverse transcription kit (Qiagen). RNA sequencing and analysis was performed by use of the NOVOGENE platform according to standard procedures. Gene expression is shown for CSF3, CD25 (IL2RA), IL12B and IL23A as regulated by the pool of HMOs as isolated from human milk (pHMOs), LNFP-III, LSTa and DSLNT.\n(§3) PBMC's from 3 donors were isolated from a buffy coat using Sepmate tubes. The cells were diluted to a concentration of 1*10^7 cells per ml. The PBMC's were seeded in 6 wells plates and treated with 0.5 g/l of each HMO in PBMC culturing medium for 6 h prior to RNA isolation. Each HMO was mixed with 100 ug/ml final concentration of Polymyxin B to ensure neutralization of possible endotoxin contamination of HMOs, while equal amounts of Polymyxin B were used as a control. As a positive control HMOs isolated from pooled human milk sample were used. Single HMOs were purchased from BOC Sciences.\n(§4) 2500 ng RNA, isolated from PBMCs, was translated into cDNA, using the quantitect reverse transcription kit (Qiagen). RNA sequencing and analysis was performed by use of the NOVOGENE platform according to standard procedures. Gene expression was shown for CSF3, CD25 (IL2RA), IL12B and IL23A as regulated by the pool of HMOs as isolated from human milk (pHMOs), LNFP-III, LSTa and DSLNT."}, "IL12B": {"system": "IL12B", "assay": "RNA sequencing in PBMCs, IL12B gene expression", "conditions": "PBMCs of 3 donors, 0.5 g/l HMO, 6 h, Polymyxin B as control, FIG. 3", "experimental": "as §1, §2, §3, §4"}, "IL23A": {"system": "IL23A", "assay": "RNA sequencing in PBMCs, IL23A gene expression", "conditions": "PBMCs of 3 donors, 0.5 g/l HMO, 6 h, Polymyxin B as control, FIG. 4", "experimental": "as §1, §2\n(§5) PBMC's from 3 donors were isolated from a buffy coat using Sepmate tubes. The cells were diluted to a concentration of 1*10^7 cells per ml. […]\n(§6) 2500 ng RNA, isolated from PBMCs, was translated into cDNA, using the quantitect reverse transcription kit (Qiagen). […]"}, "CSF3": {"system": "CSF3", "assay": "RNA sequencing in PBMCs, CSF3 gene expression", "conditions": "PBMCs of 3 donors, 0.5 g/l HMO, 6 h, Polymyxin B as control, FIG. 1", "experimental": "as §1, §2, §5, §6"}}, "data": [{"compound": "2′-fucosyllactose [2′FL, reference compound]", "values": [{"measurement": "effect on the expression of FoxP3 (summary statement)", "setting": "FoxP3", "value": "no effect"}, {"measurement": "effect on the expression of IL10 (summary statement)", "setting": "Interleukin-10 (IL-10)", "value": "no effect"}, {"measurement": "expression of IL10 (protein level in supernatant)", "setting": "Interleukin-10 (IL-10); PBMCs of 3 donors, 0.5 g/l, 24 h, FIG. 7, mixture value is average", "value": "less than 3 pg/ml"}, {"measurement": "expression of IL6, result in words", "setting": "Interleukin-6 (IL-6)", "value": "no expression"}]}, {"compound": "CC(=O)N[C@H]1[C@H](O[C@H]2[C@@H](O)[C@@H](CO)O[C@@H](O[C@H]3[C@H](O)[C@@H](O)C(O)O[C@@H]3CO)[C@@H]2O)O[C@H](CO)[C@@H](O)[C@@H]1O[C@@H]1O[C@H](CO)[C@H](O)[C@H](O[C@]2(C(=O)O)C[C@H](O)[C@@H](NC(C)=O)[C@H]([C@H](O)[C@H](O)CO)O2)[C@H]1O", "note": "(stereo partly drawn) [LSTa, α-Neu5Ac-(2→3)-β-D-Gal-(1→3)-β-D-GlcNAc-(1→3)-β-D-Gal-(1→4)-Glc]", "values": [{"measurement": "expression of CD25", "setting": "CD25 (IL2RA)", "value": "around 6.3"}, {"measurement": "expression of IL12B", "setting": "IL12B", "value": "about 3"}, {"measurement": "expression of IL23A", "setting": "IL23A", "value": "about 4.4"}, {"measurement": "effect on the expression of FoxP3 (summary statement)", "setting": "FoxP3", "value": "increase"}, {"measurement": "effect on the expression of IL10 (summary statement)", "setting": "Interleukin-10 (IL-10)", "value": "increase"}]}, {"compound": "α-Neu5Ac-(2→3)-β-D-Gal-(1→3)-[α-Neu5Ac-(2→6)]-β-D-GlcNAc-(1→3)-β-D-Gal-(1→4)-Glc [DSLNT]", "values": [{"measurement": "relative expression of CSF3", "setting": "CSF3", "value": "around 4"}, {"measurement": "expression of CD25", "setting": "CD25 (IL2RA)", "value": "around 5.5"}, {"measurement": "expression of IL12B", "setting": "IL12B", "value": "about 2.5"}]}, {"compound": "β-D-Gal-(1→4)-[α-L-Fuc-(1→3)]-β-D-GlcNAc-(1→3)-β-D-Gal-(1→4)-D-Glc [LNFP III]", "values": [{"measurement": "expression of CD25", "setting": "CD25 (IL2RA)", "value": "around 5.8"}, {"measurement": "expression of IL12B", "setting": "IL12B", "value": "about 2.5"}, {"measurement": "expression of IL23A", "setting": "IL23A", "value": "about 4.3"}, {"measurement": "effect on the expression of FoxP3 (summary statement)", "setting": "FoxP3", "value": "increase"}, {"measurement": "effect on the expression of IL10 (summary statement)", "setting": "Interleukin-10 (IL-10)", "value": "increase"}]}]}
